From publication PMC11063903, “Engineering a human P2X2 receptor with altered ligand selectivity in yeast” (The Journal of Biological Chemistry, 2024)
Substitutions are numbered along the chain they refer to.

Assays:
P2X2 F301W+F303Y = target: T1, P2X2 F301W+F303Y (Homo sapiens, UniProt Q9UBL9, F301W/F303Y); test: Fast GCaMP-mScarletI assay in yeast, P2X2 F301W+F303Y; assay type: cell-based; settings: n = 3; for Bottom, best fit value / Hillslope, best fit value / Top, best fit value: four-parameter logistic fit of ΔF/ΔT; for EC50: four-parameter logistic fit, unit inferred, unit M, read-out: EC50, best fit value
T1 construct: expressed in transfected cells; host or cells: S. cerevisiae BY4741 background
T1 sequence (Q9UBL9 1-471 F301W/F303Y): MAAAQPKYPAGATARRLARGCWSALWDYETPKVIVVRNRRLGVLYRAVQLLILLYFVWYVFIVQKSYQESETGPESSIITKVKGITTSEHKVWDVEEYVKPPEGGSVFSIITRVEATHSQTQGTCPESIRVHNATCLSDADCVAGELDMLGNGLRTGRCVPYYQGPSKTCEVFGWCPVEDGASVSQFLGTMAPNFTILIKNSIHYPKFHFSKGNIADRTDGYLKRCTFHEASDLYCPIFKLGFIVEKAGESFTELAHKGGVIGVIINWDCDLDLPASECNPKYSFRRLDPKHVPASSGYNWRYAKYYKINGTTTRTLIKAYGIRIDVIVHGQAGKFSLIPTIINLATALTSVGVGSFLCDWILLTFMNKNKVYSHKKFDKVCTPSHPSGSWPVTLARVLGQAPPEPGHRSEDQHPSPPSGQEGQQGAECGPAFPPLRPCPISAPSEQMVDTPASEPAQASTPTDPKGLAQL
Experimental: (§1) Figure 4 Unnatural-ligand gating in LBD libraries.A, WT P2X2 was tested with 1 mM ATP, 500 μM AMP-PNP, and compared to ATP with the broken receptor (K81C K83C) control with 1 mM ATP in the fast GCaMP-mScarletI assay (n = 3). […] B, heat map summarizing AMP-PNP signaling (ΔF/ΔT, fast GCaMP-mScarletI assay) in the site-saturation libraries (n = 2–3). All values are normalized to WT P2X2 with saturating amounts of AMP-PNP (500 μM) and therefore represent low signal (ΔF/ΔT) compared to the ATP ligand. C, F301W, F303Y, and A304W were combinatorially combined and tested against the WT, K81C K83C broken P2X2, and the single mutant clones with both ATP (1 mM, black) and AMP-PNP (500 μM, pink). […] Values here represent signal onset and are not normalized to a positive control (n = 2–5). D–K, dose response of each P2X variant with both ATP (black) and AMP-PNP (pink) in the fast GCaMP-mScarletI assay (n = 3). Statistics were performed via one-way ANOVA with Dunnett’s multiple comparisons with to the “broken” K81C K83C negative control. ∗ represents a p value ≤0.05, ∗∗ is p ≤ 0.01, and ∗∗∗ is p ≤ 0.001.
(§2) The combined mutations were synergistic, with F303Y + A304W having a predicted additive effect of ca. Ten-fold, relative to the 73-fold seen.
(§3) GCaMP assays were performed as follows. P2X2 GCaMP strains were designed with a bi-cistronic reporter, in which the GCaMP protein was followed by a 2A peptide and a mScarletI reporter ([53]). The co-translated mScarletI was designed to act as a control for plasmid loss, GCaMP breakage via nonsense mutation, and contamination. […] P2X2-GCaMP strains were cultured and induced as previously described. Samples were induced for 24 h to allow for the accumulation of the mature GCaMP protein. Cells were washed three times in 0.1 M MES/Tris buffer and resuspended with MES/Tris with supplemental calcium. Cells were loaded onto a black, clear bottom microplate and imaged on a FlexStation3 plate reader. Samples were imaged in “flex” mode. Samples were imaged for 48 s at an interval of 1.6 s. Fluorescence was measured with an excitation at 485 nm, and emission 525 nm. At the 21 s mark, 100 μl ligand solution was transferred to the cells. For strains with mScarlet, fluorescence was read with excitation 570 nm/emission 610 nm. Slopes were calculated from the last 6 points of measurement and were normalized to the positive control samples. Any replicate in which the mScarlet value was measured to be over 2 standard deviations less than the mean for that set was discarded from further analysis.
(§4) For multiple comparisons in the site-saturation screening data, One-way ANOVA with Dunnett’s multiple comparisons test was performed where every sample was compared to the “broken” negative control. Significance was plotted where ∗ represents a p value ≤0.05, ∗∗ is p ≤0.01, and ∗∗∗ is p ≤0.001. Dose–response curves were fit with nonlinear regression software using a four-parameter logistic curve. All statistics were calculated and plotted in Graphpad Prism software.

P2X2 F303Y+A304W = target: T2, P2X2 F303Y+A304W (Homo sapiens, UniProt Q9UBL9, A304W/F303Y); test: Fast GCaMP-mScarletI assay in yeast, P2X2 F303Y+A304W; assay type: cell-based; settings: for Bottom, best fit value / Hillslope, best fit value / Top, best fit value: four-parameter logistic fit of ΔF/ΔT
T2 construct: expressed in transfected cells; host or cells: S. cerevisiae BY4741 background
T2 sequence (Q9UBL9 1-471 F303Y/A304W): T1 sequence (Q9UBL9 1-471 F301W/F303Y) with W301F, A304W
Experimental: as §1, §2, §3, §4

increased intracellular calcium amplitudes compared to the WT receptor (P2X2 F303Y+A304W; AMP-PNP, abstract) | increased signal compared to the WT channel (rate of signal onset ΔF/ΔT) (P2X2 F303Y+A304W; at 500 μM AMP-PNP) [fold] | Structure (SMILES) | Bottom, best fit value (P2X2 F301W+F303Y) | Hillslope, best fit value (P2X2 F301W+F303Y) | Top, best fit value (P2X2 F301W+F303Y) | EC50 (P2X2 F301W+F303Y) [µM] | Bottom, best fit value (P2X2 F303Y+A304W; n = 3) | Hillslope, best fit value (P2X2 F303Y+A304W; n = 3) | Top, best fit value (P2X2 F303Y+A304W; n = 3) | EC50 (P2X2 F303Y+A304W; four-parameter logistic fit, n = 3, unit inferred, unit M, read-out: EC50, best fit value) [µM]
over 100 fold | 73 | Nc1ncnc2c1ncn2[C@@H]1O[C@H](COP(=O)(O)OP(=O)(O)NP(=O)(O)O)[C@@H](O)[C@H]1O [AMP-PNP] | 0.3038 | 1.304 | 12.6 | 260 | 1.254 | 2.515 | 114.4 | 
 |  | Nc1ncnc2c1ncn2[C@@H]1O[C@H](COP(=O)(O)OP(=O)(O)OP(=O)(O)O)[C@@H](O)[C@H]1O [ATP] | -0.11 | 0.81 | 46.60 | 3.01 | 1.98 | 3.50 | 150.00 | 6.67
